Experimental findings from ChEMBL document CHEMBL1201862, “PubChem BioAssay data set” (2004) are described below.

Test systems include 786-0; A498; A549; BT-549; CAKI-1; HCC 2998; HOP-62; Hs-578T; KM12; LOX IMVI; M14; MCF7; MDA-MB-231; MDA-N; NCI-H23; OVCAR-3; OVCAR-4; SF-539; SN12C; UO-31.
Common to all, as to test: NCI anticancer screen, dose series, 48 h

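In this assay, cells in 96-well plates receive the compound at five concentrations for 48 hours. Endpoints are linearly interpolated between the surrounding concentrations. Abbreviation: GI50, concentration required for 50% inhibition of growth.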 Active and inactive are the calls of the source. Cut-off read from the data, not from the text of the source: active = GI50 up to about 1.1 µM and inactive = higher.

For `Cc1nc2ccc(NCCN(C)C)c3c(=O)c4ccccc4n1c23`, the GI50 is 1.68 µM (inactive) in the assay on 786-0; 3.91 µM (inactive) in the assay with A498; 1.16 µM (inactive) in the assay with A549; 10.5 µM (inactive) with BT-549; 2.76 µM (inactive) with CAKI-1; 2.96 µM (inactive) in the assay on HCC 2998. Moreover, the GI50 with HOP-62 is 1.51 µM (inactive); in the assay with Hs-578T, 2.55 µM (inactive); in the assay on KM12 it was 2.21 µM (inactive); in the assay with LOX IMVI, 0.9 µM (active); in the assay on M14, 4.03 µM (inactive); in the assay on MCF7, 3.3 µM (inactive). Also, the GI50 in the assay on MDA-MB-231 was 1.05 µM (active); in the assay on MDA-N it was 1.66 µM (inactive); with NCI-H23 it was 2.97 µM (inactive); in the assay with OVCAR-3 it was 5 µM (inactive); in the assay on OVCAR-4 it was 1.83 µM (inactive); in the assay on SF-539, 2.74 µM (inactive). Moreover, the GI50 in the assay with SN12C was 2.31 µM (inactive); in the assay with UO-31 it was 2.13 µM (inactive).
Regarding `CCC1(c2ccc(N)cc2)CCC(=O)NC1=O` (stereo not given) [AMINOGLUTETHIMIDE], the GI50 is 3420 µM (inactive) with 786-0; 2310 µM (inactive) in the assay with A498; 2880 µM (inactive) in the assay with A549; 1660 µM (inactive) with BT-549; 1460 µM (inactive) in the assay with CAKI-1; 3680 µM (inactive) with HCC 2998. For the same compound, the GI50 is 1050 µM (inactive) in the assay with HOP-62; 1520 µM (inactive) in the assay with Hs-578T; 2470 µM (inactive) in the assay with KM12; 2770 µM (inactive) in the assay with LOX IMVI; 2290 µM (inactive) in the assay with M14; 3010 µM (inactive) with MCF7. In addition, the GI50 in the assay on MDA-MB-231 is 2610 µM (inactive); in the assay with MDA-N, 3250 µM (inactive); with NCI-H23, 3240 µM (inactive); in the assay with OVCAR-3, 1810 µM (inactive); in the assay with OVCAR-4, 1970 µM (inactive); with SF-539, 3240 µM (inactive). Further, the GI50 was 3400 µM (inactive) with SN12C and 1930 µM (inactive) with UO-31.
